From patent US8853258B2, “C-linked hydroxamic acid derivatives useful as antibacterial agents” (Pfizer Inc., priority 2009, dated 2014)
In brackets after ≈: the same amount, converted by molar mass.

Tests used:
[1] = biological target: Pseudomonas aeruginosa LpxC enzyme (Pseudomonas aeruginosa (strain ATCC 15692 / DSM 22644 / CIP 104116 / JCM 14847 / LMG 12228 / 1C / PRS 101 / PAO1), UniProt P47205); experiment: IC50 Assay, LpxC Enzyme from P. aeruginosa (PA LpxC Enzyme IC50); assay type: biochemical; conditions: Table 3; read-out: PA LpxC enzyeme IC^50
Summary of the method: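 Reaction run 1 h then stopped with 1N HCl. Conversion measured by RapidFire high-throughput mass spectrometry. IC50 derived from percent conversion relative to a no-enzyme control.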

[2] = system: Acinetobacter baumanii/haemolyticus: Multidrug-resistant clinical isolate (AB-3167); experiment: MIC determination (CLSI), AB-3167; assay type: cell-based; conditions: Acinetobacter baumannii; Table 3; read-out: AB-3167 MIC
Summary of the method: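 Multidrug-resistant clinical isolate AB-3167 (A. baumannii/haemolyticus) tested for minimum inhibitory concentration following CLSI dilution susceptibility standards M7-A7 and M100-S18.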

[3] = system: Escherichia coli EC-1: VOGEL, mouse virulent; experiment: MIC determination (CLSI), EC-1; assay type: cell-based; conditions: Escherichia coli, read-out: EC-1 MIC
Summary of the method: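 E. coli Vogel, a mouse-virulent strain (EC-1), was tested. MICs were set by dilution susceptibility testing per CLSI standards M7-A7/M100-S18.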

[4] = system: Klebsiella pneumoniae: Ciprofloxacin-resistant isolate, ESBL, clinical isolate (KP-3700); experiment: MIC determination (CLSI), KP-3700; assay type: cell-based
Summary of the method: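 MIC measured by broth dilution according to CLSI M7-A7 and M100-S18 standards. Test organism was a ciprofloxacin-resistant, ESBL-expressing clinical isolate.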

[5] = system: Pseudomonas aeruginosa UI-18: Wild-type (PA-7); experiment: MIC determination (CLSI), PA-7; assay type: cell-based; conditions: Pseudomonas aeruginosa; Table 3; read-out: PA-7 MIC
Summary of the method: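 MIC by dilution method per CLSI M7-A7 and M100-S18 guidelines. Strain: wild-type Pseudomonas aeruginosa UI-18.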

## Cc1cccc(COc2ccc(CCC(C)(C(=O)NO)S(C)(=O)=O)cc2)c1 (centres unmarked) [Example 310, N-hydroxy-2-methyl-4-{4-[(3-methylbenzyl)oxy]phenyl}-2-(methylsulfonyl)butanamide]
[1]
  IC50: 0.883 nM
[2]
  MIC: 16 µg/mL (≈ 40.9 µM)
[3]
  MIC: 2 µg/mL (≈ 5.11 µM)
[4]
  KP-3700 MIC: 8 µg/mL
[5]
  MIC: 4 µg/mL (≈ 10.2 µM)
